Read-outs that look alike come from different tables or passages of the source.
What was measured:
Assay in all cases: Eurofins kinase selectivity profile against 380 other human recombinant kinases (Table S2)
Format in all cases: biochemical
[1] = molecular target: T1, 380 human recombinant protein kinases (Homo sapiens, UniProt O75676); conditions: MSK2(h), read-out: Inhibition rate
T1 construct: purchased Eurofins (Celle Lévescault)
Summary of the method: (§1)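 The inhibitor was sent to a contract lab and screened at various concentrations against 380 human recombinant protein kinases. This served as a counter-screen for MK2 specificity.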

[2] = molecular target: T2, 380 human recombinant protein kinases (Homo sapiens, UniProt P15056, V600E); conditions: B-Raf(V599E)(h), read-out: Inhibition rate
T2 construct: purchased Eurofins (Celle Lévescault)
T2 sequence (P15056 whole entry V600E): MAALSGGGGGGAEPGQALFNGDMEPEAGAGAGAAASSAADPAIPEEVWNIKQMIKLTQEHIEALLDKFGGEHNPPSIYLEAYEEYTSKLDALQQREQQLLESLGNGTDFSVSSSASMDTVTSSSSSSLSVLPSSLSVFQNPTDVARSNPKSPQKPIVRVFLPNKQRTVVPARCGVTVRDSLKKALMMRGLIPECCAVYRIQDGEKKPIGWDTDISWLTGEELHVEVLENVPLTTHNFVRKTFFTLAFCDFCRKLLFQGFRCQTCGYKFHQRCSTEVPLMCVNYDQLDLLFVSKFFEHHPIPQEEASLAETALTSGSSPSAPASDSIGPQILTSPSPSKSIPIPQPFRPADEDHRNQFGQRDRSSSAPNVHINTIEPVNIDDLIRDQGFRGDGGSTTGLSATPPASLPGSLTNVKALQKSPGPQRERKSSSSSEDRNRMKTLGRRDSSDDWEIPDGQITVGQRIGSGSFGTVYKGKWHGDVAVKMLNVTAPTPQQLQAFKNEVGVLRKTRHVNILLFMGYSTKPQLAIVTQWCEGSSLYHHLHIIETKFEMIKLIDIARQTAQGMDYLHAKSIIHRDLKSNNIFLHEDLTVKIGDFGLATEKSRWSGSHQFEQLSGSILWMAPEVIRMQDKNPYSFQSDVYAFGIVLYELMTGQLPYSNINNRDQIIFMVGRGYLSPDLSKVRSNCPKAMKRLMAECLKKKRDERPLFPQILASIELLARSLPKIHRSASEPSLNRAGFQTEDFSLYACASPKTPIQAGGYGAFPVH
Summary of the method: as §1

[3] = molecular target: T3, 380 human recombinant protein kinases (Homo sapiens, UniProt P17612); conditions: PKA(h), read-out: Inhibition rate
T3 construct: purchased Eurofins (Celle Lévescault)
Summary of the method: as §1

[4] = molecular target: T4, 380 human recombinant protein kinases (Homo sapiens, UniProt P27448); conditions: MARK3(h), read-out: Inhibition rate
T4 construct: purchased Eurofins (Celle Lévescault)
T4 sequence (P27448 whole entry): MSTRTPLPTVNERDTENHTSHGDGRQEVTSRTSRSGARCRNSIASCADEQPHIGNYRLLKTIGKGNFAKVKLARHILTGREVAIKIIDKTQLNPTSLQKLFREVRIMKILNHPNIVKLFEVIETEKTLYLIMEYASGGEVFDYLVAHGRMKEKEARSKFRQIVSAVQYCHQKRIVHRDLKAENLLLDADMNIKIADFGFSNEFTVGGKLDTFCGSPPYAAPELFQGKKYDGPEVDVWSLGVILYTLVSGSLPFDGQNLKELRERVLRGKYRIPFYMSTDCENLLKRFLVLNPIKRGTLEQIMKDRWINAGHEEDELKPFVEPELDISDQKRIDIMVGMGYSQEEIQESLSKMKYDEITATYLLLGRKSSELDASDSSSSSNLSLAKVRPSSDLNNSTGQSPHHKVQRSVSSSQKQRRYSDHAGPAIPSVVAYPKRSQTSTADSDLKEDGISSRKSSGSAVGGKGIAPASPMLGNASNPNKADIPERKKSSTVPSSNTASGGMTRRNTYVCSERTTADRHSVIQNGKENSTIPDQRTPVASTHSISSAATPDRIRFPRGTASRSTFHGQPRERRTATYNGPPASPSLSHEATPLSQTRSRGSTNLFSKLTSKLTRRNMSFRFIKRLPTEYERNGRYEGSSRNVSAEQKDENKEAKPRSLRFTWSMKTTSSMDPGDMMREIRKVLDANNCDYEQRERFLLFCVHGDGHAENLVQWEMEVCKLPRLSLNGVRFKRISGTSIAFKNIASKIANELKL
Summary of the method: as §1

[5] = molecular target: T5, 380 human recombinant protein kinases (Homo sapiens, UniProt P45984); conditions: JNK2α2(h), read-out: Inhibition rate
T5 construct: purchased Eurofins (Celle Lévescault)
T5 sequence (P45984 whole entry): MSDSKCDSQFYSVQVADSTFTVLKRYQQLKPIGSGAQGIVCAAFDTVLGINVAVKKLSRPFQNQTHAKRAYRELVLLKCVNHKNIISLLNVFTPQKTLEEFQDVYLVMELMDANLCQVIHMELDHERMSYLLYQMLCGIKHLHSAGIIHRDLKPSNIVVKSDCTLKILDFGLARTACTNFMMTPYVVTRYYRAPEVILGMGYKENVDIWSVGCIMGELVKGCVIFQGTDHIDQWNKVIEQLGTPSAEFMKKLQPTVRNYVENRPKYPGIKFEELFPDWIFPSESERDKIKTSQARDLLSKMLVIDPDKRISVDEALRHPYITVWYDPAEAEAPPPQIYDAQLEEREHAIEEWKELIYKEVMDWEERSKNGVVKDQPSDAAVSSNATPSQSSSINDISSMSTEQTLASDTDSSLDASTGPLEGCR
Summary of the method: as §1

[6] = molecular target: T6, 380 human recombinant protein kinases (Homo sapiens, UniProt P50613); conditions: CDK7/cyclinH/MAT1(h), read-out: Inhibition rate
T6 construct: purchased Eurofins (Celle Lévescault)
T6 sequence (P50613 whole entry): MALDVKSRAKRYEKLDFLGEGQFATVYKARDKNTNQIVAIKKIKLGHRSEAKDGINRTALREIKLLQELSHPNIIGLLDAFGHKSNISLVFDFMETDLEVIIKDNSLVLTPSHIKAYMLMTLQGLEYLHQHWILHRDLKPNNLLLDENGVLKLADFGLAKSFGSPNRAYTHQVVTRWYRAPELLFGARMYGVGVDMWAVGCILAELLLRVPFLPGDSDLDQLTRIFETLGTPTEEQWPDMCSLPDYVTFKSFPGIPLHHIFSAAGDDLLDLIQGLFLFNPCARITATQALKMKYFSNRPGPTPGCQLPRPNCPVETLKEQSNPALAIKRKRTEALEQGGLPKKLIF
Summary of the method: as §1

[7] = molecular target: T7, 380 human recombinant protein kinases (Homo sapiens, UniProt Q00535); conditions: read-out: Inhibition rate; for inhibition at 0.01 µM: 10 nM; for inhibition at 0.1 µM: 100 nM; for inhibition at 1 µM: 1000 nM
T7 construct: purchased Eurofins (Celle Lévescault)
T7 sequence (Q00535 whole entry): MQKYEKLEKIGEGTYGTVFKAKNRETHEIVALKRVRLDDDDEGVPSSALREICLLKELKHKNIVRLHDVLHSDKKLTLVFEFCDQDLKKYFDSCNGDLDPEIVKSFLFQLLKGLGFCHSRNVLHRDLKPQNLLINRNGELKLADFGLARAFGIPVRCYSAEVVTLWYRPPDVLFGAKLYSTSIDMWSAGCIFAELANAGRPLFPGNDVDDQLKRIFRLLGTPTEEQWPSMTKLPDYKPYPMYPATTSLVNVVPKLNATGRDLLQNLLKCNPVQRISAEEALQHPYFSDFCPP
Summary of the method: as §1

[8] = molecular target: T8, 380 human recombinant protein kinases (Homo sapiens, UniProt Q02750); conditions: MEK1(h), read-out: Inhibition rate
T8 construct: purchased Eurofins (Celle Lévescault)
T8 sequence (Q02750 whole entry): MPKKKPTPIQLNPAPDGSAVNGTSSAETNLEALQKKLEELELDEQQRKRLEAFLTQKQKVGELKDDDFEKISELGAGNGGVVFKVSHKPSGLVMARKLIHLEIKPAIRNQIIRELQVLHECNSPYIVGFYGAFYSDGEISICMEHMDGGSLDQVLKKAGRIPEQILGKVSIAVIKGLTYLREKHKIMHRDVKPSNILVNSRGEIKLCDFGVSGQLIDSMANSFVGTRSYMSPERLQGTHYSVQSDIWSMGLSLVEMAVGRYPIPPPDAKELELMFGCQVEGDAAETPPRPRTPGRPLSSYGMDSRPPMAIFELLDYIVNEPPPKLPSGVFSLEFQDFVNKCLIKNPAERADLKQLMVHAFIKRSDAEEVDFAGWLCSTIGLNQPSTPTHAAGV
Summary of the method: as §1

[9] = molecular target: T9, 380 human recombinant protein kinases (Homo sapiens, UniProt Q06418); conditions: Rse(h), read-out: Inhibition rate
T9 construct: purchased Eurofins (Celle Lévescault)
T9 sequence (Q06418 41-890): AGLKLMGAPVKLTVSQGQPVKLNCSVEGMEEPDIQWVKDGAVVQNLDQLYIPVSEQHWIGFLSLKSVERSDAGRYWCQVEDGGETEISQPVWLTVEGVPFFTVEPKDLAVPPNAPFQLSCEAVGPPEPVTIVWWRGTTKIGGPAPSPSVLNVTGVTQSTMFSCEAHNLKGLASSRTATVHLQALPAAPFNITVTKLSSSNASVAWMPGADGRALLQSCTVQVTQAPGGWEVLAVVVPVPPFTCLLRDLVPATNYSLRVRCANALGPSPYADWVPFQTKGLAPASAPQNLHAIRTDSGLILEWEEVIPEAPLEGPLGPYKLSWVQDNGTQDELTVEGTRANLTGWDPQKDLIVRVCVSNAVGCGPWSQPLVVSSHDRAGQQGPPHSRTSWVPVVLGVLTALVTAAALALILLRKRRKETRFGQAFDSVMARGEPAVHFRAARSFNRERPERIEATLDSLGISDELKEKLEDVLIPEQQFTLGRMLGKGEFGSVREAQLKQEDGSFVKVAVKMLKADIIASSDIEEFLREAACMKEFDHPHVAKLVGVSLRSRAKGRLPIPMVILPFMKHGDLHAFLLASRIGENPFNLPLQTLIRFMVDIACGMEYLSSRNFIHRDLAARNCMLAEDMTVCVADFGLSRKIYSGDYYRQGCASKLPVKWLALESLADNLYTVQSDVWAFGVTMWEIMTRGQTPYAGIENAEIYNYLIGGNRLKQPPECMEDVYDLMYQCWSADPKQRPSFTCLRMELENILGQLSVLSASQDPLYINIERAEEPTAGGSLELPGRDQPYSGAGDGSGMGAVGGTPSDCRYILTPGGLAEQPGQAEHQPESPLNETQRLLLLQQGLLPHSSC
Summary of the method: as §1

[10] = molecular target: T10, 380 human recombinant protein kinases (Homo sapiens, UniProt Q13177); conditions: PAK2(h), read-out: Inhibition rate
T10 construct: purchased Eurofins (Celle Lévescault)
T10 sequence (Q13177 whole entry): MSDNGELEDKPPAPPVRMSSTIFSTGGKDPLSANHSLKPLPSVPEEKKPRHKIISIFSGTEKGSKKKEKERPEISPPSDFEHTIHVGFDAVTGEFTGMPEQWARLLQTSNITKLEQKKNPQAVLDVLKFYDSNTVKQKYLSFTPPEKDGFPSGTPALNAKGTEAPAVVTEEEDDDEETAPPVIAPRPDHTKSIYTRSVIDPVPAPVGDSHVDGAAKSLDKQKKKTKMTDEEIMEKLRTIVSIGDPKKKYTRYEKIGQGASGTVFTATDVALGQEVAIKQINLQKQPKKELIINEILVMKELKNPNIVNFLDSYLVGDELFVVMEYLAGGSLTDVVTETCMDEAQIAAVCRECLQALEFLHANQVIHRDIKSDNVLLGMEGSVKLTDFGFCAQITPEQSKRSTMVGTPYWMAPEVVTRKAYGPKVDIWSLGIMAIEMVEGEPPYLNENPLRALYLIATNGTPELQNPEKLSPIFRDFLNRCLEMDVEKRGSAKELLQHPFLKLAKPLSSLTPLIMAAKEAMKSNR
Summary of the method: as §1

[11] = molecular target: T11, 380 human recombinant protein kinases (Homo sapiens, UniProt Q16288); conditions: TrkC(h), read-out: Inhibition rate (%)
T11 construct: purchased Eurofins (Celle Lévescault)
T11 sequence (Q16288 32-839): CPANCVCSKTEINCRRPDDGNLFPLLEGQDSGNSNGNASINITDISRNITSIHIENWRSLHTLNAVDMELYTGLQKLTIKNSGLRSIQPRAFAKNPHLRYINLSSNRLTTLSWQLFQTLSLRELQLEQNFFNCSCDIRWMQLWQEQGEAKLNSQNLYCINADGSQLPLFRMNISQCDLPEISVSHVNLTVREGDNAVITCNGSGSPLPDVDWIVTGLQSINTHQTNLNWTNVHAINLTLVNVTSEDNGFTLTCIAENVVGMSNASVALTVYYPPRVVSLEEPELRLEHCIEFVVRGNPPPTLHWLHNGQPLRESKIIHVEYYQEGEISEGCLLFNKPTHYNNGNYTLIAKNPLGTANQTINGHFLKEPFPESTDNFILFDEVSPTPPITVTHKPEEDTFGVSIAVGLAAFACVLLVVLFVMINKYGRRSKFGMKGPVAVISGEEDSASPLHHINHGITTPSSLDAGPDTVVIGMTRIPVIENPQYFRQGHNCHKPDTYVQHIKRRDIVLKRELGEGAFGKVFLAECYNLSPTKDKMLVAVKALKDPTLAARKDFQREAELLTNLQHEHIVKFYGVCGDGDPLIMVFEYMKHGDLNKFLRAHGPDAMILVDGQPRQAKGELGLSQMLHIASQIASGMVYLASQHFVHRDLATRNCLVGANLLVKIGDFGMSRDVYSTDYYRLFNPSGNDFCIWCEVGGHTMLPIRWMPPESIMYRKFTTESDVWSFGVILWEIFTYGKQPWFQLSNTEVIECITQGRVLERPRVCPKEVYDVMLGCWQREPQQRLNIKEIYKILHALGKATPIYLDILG
Summary of the method: as §1

[12] = molecular target: T12, 380 human recombinant protein kinases (Homo sapiens, UniProt Q96PF2); conditions: TSSK2(h), read-out: Inhibition rate (%)
T12 construct: purchased Eurofins (Celle Lévescault)
T12 sequence (Q96PF2 1-358): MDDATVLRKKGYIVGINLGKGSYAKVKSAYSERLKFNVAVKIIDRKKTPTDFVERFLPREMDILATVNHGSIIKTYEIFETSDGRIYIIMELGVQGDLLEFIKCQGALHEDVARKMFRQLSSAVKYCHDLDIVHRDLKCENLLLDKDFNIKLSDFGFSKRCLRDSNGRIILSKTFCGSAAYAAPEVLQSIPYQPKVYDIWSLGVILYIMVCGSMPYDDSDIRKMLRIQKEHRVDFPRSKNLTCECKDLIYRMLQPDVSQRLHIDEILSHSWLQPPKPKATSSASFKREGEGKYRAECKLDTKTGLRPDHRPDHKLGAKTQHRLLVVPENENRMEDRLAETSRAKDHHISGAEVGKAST
Summary of the method: as §1

C=CC(=O)Nc1cc(-c2cc(-c3cc4c([nH]3)CCNC4=O)ccn2)ccc1OC(F)(F)F [compound 11]
inhibition at 0.01 µM ([1]; 10 nM): -8%
inhibition at 0.1 µM ([1]; 100 nM): -5%
inhibition at 1 µM ([1]; 1000 nM): -13%
inhibition at 0.01 µM ([2]; 10 nM): -6%
inhibition at 0.1 µM ([2]; 100 nM): -14%
inhibition at 1 µM ([2]; 1000 nM): -2%
inhibition at 0.01 µM ([3]; 10 nM): -7%
inhibition at 0.1 µM ([3]; 100 nM): -7%
inhibition at 1 µM ([3]; 1000 nM): -6%
inhibition at 0.01 µM ([4]; 10 nM): 2%
inhibition at 0.1 µM ([4]; 100 nM): -4%
inhibition at 1 µM ([4]; 1000 nM): 5%
inhibition at 0.01 µM ([5]; 10 nM): -6%
inhibition at 0.1 µM ([5]; 100 nM): 5%
inhibition at 1 µM ([5]; 1000 nM): 23%
inhibition at 0.01 µM ([6]; 10 nM): 5%
inhibition at 0.1 µM ([6]; 100 nM): -1%
inhibition at 1 µM ([6]; 1000 nM): -2%
inhibition at 0.01 µM ([7]; CDK5/p25(h)): -6%
inhibition at 0.1 µM ([7]; CDK5/p25(h)): 2%
inhibition at 1 µM ([7]; CDK5/p25(h)): -2%
inhibition at 0.01 µM ([7]; CDK5/p35(h)): -7%
inhibition at 0.1 µM ([7]; CDK5/p35(h)): -6%
inhibition at 1 µM ([7]; CDK5/p35(h)): 5%
inhibition at 0.01 µM ([8]; 10 nM): -12%
inhibition at 0.1 µM ([8]; 100 nM): -4%
inhibition at 1 µM ([8]; 1000 nM): -8%
inhibition at 0.01 µM ([9]; 10 nM): 7%
inhibition at 0.1 µM ([9]; 100 nM): -3%
inhibition at 1 µM ([9]; 1000 nM): -5%
inhibition at 0.01 µM ([10]; 10 nM): -3%
inhibition at 0.1 µM ([10]; 100 nM): -5%
inhibition at 1 µM ([10]; 1000 nM): -3%
inhibition at 0.01 µM ([11]; 10 nM): -3%
inhibition at 0.1 µM ([11]; 100 nM): 4%
inhibition at 1 µM ([11]; 1000 nM): -3%
inhibition at 0.01 µM ([12]; 10 nM): -7%
inhibition at 0.1 µM ([12]; 100 nM): -5%
inhibition at 1 µM ([12]; 1000 nM): -5%
